# Source: patent US8580803B2, “Substituted pyrrolo-aminopyrimidine compounds” (ArQule, Inc., priority 2009, dated 2013)
# Biological target: T1, ACK1 (110-489) (Homo sapiens, UniProt Q07912)
# T1 construct: ACK1 110-489 (12.5 μl) were added to each well
# Assay: ACK1 Activity Assay (AlphaScreen, PYK2-derived peptide)
# Type: biochemical
# Conditions: Average of ACK1(110-489), IC50, AlphaScreen (Pyk2); read-out: ACK1 (110-489) IC50
# Method: The extent of peptide phosphorylation was determined by using acceptor beads conjugated to phosphotyrosine antibody that recognizes the phosphorylated peptide and donor beads conjugated to streptavidin that binds to the biotin on the peptide. Excitation of the donor beads converted ambient oxygen to excited singlet oxygen which when in close proximity to acceptor beads, reacted with acceptor beads where the signal was amplified.
# Test inhibitors and controls (N-(2,6-dimethylphenyl)-4-(2-ethoxyphenoxy)-2-[(4-piperazin-1-ylphenyl)amino]pyrimidine-5-carboxamide) were prepared in 10% DMSO at 10× the desired final concentration. […] After a 20-min incubation at room temperature, the kinase reaction was initiated by the addition of 10 μl of PYK2/ATP mixture. […] The plates were incubated for 60 min at room temperature. The reaction was stopped by the addition of 10 μl stop/detection mixture which contains EDTA (final concentration is 10 mM), AlphaScreen™ Streptavidin Donor beads (final concentration is 500 ng/well) and AlphaScreen™ Phospho-tyrosine (P-Tyr-100) Acceptor beads (final concentration is 500 ng/well) were diluted in assay buffer. This reagent addition step was performed in the dark because the AlphaScreen™ beads are light-sensitive. The plate was incubated for 60 min at room temperature in the dark and the plates were read on the Perkin Elmer Envision Multilabel plate reader ([…]).
# T1 sequence (Q07912 110-489, species assumed): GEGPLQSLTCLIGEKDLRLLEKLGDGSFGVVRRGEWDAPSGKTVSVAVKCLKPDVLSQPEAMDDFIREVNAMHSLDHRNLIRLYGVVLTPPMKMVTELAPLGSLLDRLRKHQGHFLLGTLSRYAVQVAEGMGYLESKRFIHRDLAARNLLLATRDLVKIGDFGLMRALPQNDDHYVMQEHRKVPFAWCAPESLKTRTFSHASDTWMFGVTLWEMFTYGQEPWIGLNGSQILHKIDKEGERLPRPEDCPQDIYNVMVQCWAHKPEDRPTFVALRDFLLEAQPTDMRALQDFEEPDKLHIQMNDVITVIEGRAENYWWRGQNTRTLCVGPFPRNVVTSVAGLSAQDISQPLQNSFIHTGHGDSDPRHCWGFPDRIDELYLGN
row,SMILES,IC50 [nM]
1,"COCc1ccc(CC(=O)Nc2ccc(Nc3ncnc4[nH]cc(C(=O)c5ccccc5)c34)cc2)cc1 [2-[4-(methoxymethyl)phenyl]-N-(4-{[5-(phenylcarbonyl)-7H-pyrrolo[2,3-d]pyrimidin-4-yl]amino}phenyl)acetamide]",69000
2,"O=C(Nc1ccc(N2CCCCC2)cc1)c1cccc(Nc2ncnc3[nH]cc(C(=O)c4ccccc4)c23)c1 [3-[(5-benzoyl-7H-pyrrolo[2,3-d]pyrimidin-4-yl)amino]-N-(4-piperidin-1-ylphenyl)benzamide]",31400
3,"O=C(Nc1ccc(Nc2ncnc3[nH]cc(C(=O)c4ccccc4)c23)cc1)c1ccncc1Cl [3-chloro-N-(4-{[5-(phenylcarbonyl)-7H-pyrrolo[2,3-d]pyrimidin-4-yl]amino}phenyl)pyridine-4-carboxamide]",28900
4,"CN(C)CCCC(=O)Nc1ccc(Nc2ncnc3[nH]cc(C(=O)c4ccccc4)c23)cc1 [4-(dimethylamino)-N-(4-{[5-(phenylcarbonyl)-7H-pyrrolo[2,3-d]pyrimidin-4-yl]amino}phenyl)butanamide]",2570
5,"O=C(Nc1ccc(Nc2ncnc3[nH]cc(C(=O)c4ccccc4)c23)cc1)c1ccc(CN2CCOCC2)cc1 [4-(morpholin-4-ylmethyl)-N-(4-{[5-(phenylcarbonyl)-7H-pyrrolo[2,3-d]pyrimidin-4-yl]amino}phenyl)benzamide]",10900
6,"O=C(c1ccccc1)c1c[nH]c2ncnc(Nc3ccc4cc[nH]c4c3)c12 [(4-((1H-indol-6-yl)amino)-7H-pyrrolo[2,3-d]pyrimidin-5-yl)(phenyl)methanone]",61500
7,"COc1ccc(Nc2ncnc3[nH]cc(C(=O)c4ccccc4)c23)c(OC)c1 [(4-((2,4-dimethoxy-phenyl)amino)-7H-pyrrolo[2,3-d]pyrimidin-5-yl)(phenyl)methanone]",4530
8,"O=C(CCc1cccnc1)Nc1ccc(Nc2ncnc3[nH]cc(C(=O)c4ccccc4)c23)cc1 [N-(4-{[5-(phenylcarbonyl)-7H-pyrrolo[2,3-d]pyrimidin-4-yl]amino}phenyl)-3-pyridin-3-ylpropanamide]",4390
9,"CC(C)C(=O)Nc1ccc(Nc2ncnc3[nH]cc(C(=O)c4ccccc4)c23)cc1 [N-{4-[(5-benzoyl-7H-pyrrolo[2,3-d]pyrimidin-4-yl)amino]phenyl}-2-methylpropanamide]",4770
10,"CCCC(=O)Nc1ccc(Nc2ncnc3[nH]cc(C(=O)c4ccccc4)c23)cc1 [N-{4-[(5-benzoyl-7H-pyrrolo[2,3-d]pyrimidin-4-yl)amino]phenyl}butanamide]",3770
11,"CC(=O)Nc1cccc(Nc2ncnc3[nH]cc(C(=O)c4cccc(F)c4)c23)c1 [drawing 245, N-(3-{[5-(3-fluorobenzoyl)-7H-pyrrolo[2,3-d]pyrimidin-4-yl]amino}phenyl)acetamide]",2290
12,"O=C(c1ccccc1)c1c[nH]c2ncnc(Nc3cccc(CCO)c3)c12 [drawing 259, (4-{[3-(2-hydroxyethyl)phenyl]amino}-7H-pyrrolo[2,3-d]pyrimidin-5-yl)(phenyl)methanone]",5140
13,"O=C(Nc1ccccc1)Nc1cccc(Nc2ncnc3[nH]cc(C(=O)c4ccccc4)c23)c1 [drawing 260, 1-phenyl-3-(3-{[5-(phenylcarbonyl)-7H-pyrrolo[2,3-d]pyrimidin-4-yl]amino}phenyl)urea]",28100
14,"CC(C)(C)NC(=O)Nc1cccc(Nc2ncnc3[nH]cc(C(=O)c4ccccc4)c23)c1 [drawing 274, 1-tert-butyl-3-(3-{[5-(phenylcarbonyl)-7H-pyrrolo[2,3-d]pyrimidin-4-yl]amino}phenyl)urea]",6650
15,"CCNC(=O)Nc1cccc(Nc2ncnc3[nH]cc(C(=O)c4ccccc4)c23)c1 [drawing 275, 1-ethyl-3-(3-{[5-(phenylcarbonyl)-7H-pyrrolo[2,3-d]pyrimidin-4-yl]amino}phenyl)urea]",1810
16,"COC(=O)c1cc(NC(=O)CNC(C)=O)cc(Nc2ncnc3[nH]cc(C(=O)c4ccccc4)c23)c1 [drawing 277, methyl 3-[(N-acetylglycyl)amino]-5-{[5-(phenylcarbonyl)-7H-pyrrolo[2,3-d]pyrimidin-4-yl]amino}benzoate]",2000
17,"Cc1cccc(Nc2ncnc3[nH]cc(C(=O)c4ccccc4)c23)c1 [phenyl(4-(m-tolylamino)-7H-pyrrolo[2,3-d]pyrimidin-5-yl)methanone]",55400

# More lines, now with the values ahead:
row,IC50 [nM],SMILES
1,798,"O=C(Cn1ccnc1)Nc1ccc(Nc2ncnc3[nH]cc(C(=O)c4ccccc4)c23)cc1 [2-(1H-imidazol-1-yl)-N-(4-{[5-(phenylcarbonyl)-7H-pyrrolo[2,3-d]pyrimidin-4-yl]amino}phenyl)acetamide]"
2,776,"CC(=O)NCCC(=O)Nc1ccc(Nc2ncnc3[nH]cc(C(=O)c4ccccc4)c23)cc1 [3-acetamido-N-(4-((5-benzoyl-7H-pyrrolo[2,3-d]pyrimidin-4-yl)amino)phenyl)propanamide]"
3,1020,"COCCCC(=O)Nc1ccc(Nc2ncnc3[nH]cc(C(=O)c4ccccc4)c23)cc1 [4-methoxy-N-(4-{[5-(phenylcarbonyl)-7H-pyrrolo[2,3-d]pyrimidin-4-yl]amino}phenyl)butanamide]"
4,241,"CN(C)CC(=O)Nc1ccc(Nc2ncnc3[nH]cc(C(=O)c4ccccc4)c23)cc1 [N-(4-((5-benzoyl-7H-pyrrolo[2,3-d]pyrimidin-4-yl)amino)phenyl)-2-(dimethylamino)acetamide]"
5,415,"CN(C)CCC(=O)Nc1ccc(Nc2ncnc3[nH]cc(C(=O)c4ccccc4)c23)cc1 [N-(4-((5-benzoyl-7H-pyrrolo[2,3-d]pyrimidin-4-yl)amino)phenyl)-3-(dimethylamino)propanamide]"
6,1270,"O=C(c1ccccc1)c1c[nH]c2ncnc(Nc3ccc(NC(=O)C4CCN(c5ccncc5)CC4)cc3)c12 [N-(4-{[5-(phenylcarbonyl)-7H-pyrrolo[2,3-d]pyrimidin-4-yl]amino}phenyl)-1-pyridin-4-ylpiperidine-4-carboxamide]"
7,646,"NC(=O)CCC(=O)Nc1ccc(Nc2ncnc3[nH]cc(C(=O)c4ccccc4)c23)cc1 [N-(4-{[5-(phenylcarbonyl)-7H-pyrrolo[2,3-d]pyrimidin-4-yl]amino}phenyl)butanediamide]"
8,1430,"CC(=O)Nc1ccc(Nc2ncnc3[nH]cc(C(=O)c4ccccc4)c23)cc1 [drawing 241, N-{4-[(5-benzoyl-7H-pyrrolo[2,3-d]pyrimidin-4-yl)amino]phenyl}acetamide]"
9,189,"CNC(=O)c1cccc(Nc2ncnc3[nH]cc(C(=O)c4ccccc4C)c23)c1 [drawing 242, N-methyl-3-{[5-(2-methylbenzoyl)-7H-pyrrolo[2,3-d]pyrimidin-4-yl]amino}benzamide]"
10,1260,"CC(=O)Nc1cccc(Nc2ncnc3[nH]cc(C(=O)c4ccccc4C)c23)c1 [drawing 243, N-(3-{[5-(2-methylbenzoyl)-7H-pyrrolo[2,3-d]pyrimidin-4-yl]amino}phenyl)acetamide]"
11,914,"CNC(=O)c1cccc(Nc2ncnc3[nH]cc(C(=O)c4cccc(F)c4)c23)c1 [drawing 244, 3-{[5-(3-fluorobenzoyl)-7H-pyrrolo[2,3-d]pyrimidin-4-yl]amino}-N-methylbenzamide]"
12,1470,"O=C(Cc1cncc(Br)c1)Nc1cccc(Nc2ncnc3[nH]cc(C(=O)c4ccccc4)c23)c1 [drawing 251, N-{3-[(5-benzoyl-7H-pyrrolo[2,3-d]pyrimidin-4-yl)amino]phenyl}-2-(5-bromopyridin-3-yl)acetamide]"
13,446,"NCc1ccc(Nc2ncnc3[nH]cc(C(=O)c4ccccc4)c23)cc1 [drawing 258, (4-{[4-(aminomethyl)phenyl]amino}-7H-pyrrolo[2,3-d]pyrimidin-5-yl)(phenyl)methanone]"
14,240,"O=C(c1ccccc1)c1c[nH]c2ncnc(Nc3cccc(CO)c3)c12 [drawing 276, (4-{[3-(hydroxymethyl)phenyl]amino}-7H-pyrrolo[2,3-d]pyrimidin-5-yl)(phenyl)methanone]"

# Tested on: not given
# Assay: not given
# Conditions: not given
row,melting point [°C],SMILES
1,256 to 258,CC(C)(C)OC(=O)NCc1ccc(Nc2ncnc3[nH]cc(C(=O)c4ccccc4)c23)cc1
2,> 300,O=C(Nc1ccc(Nc2ncnc3[nH]cc(C(=O)c4ccccc4)c23)cc1)c1ccccc1
3,210 to 212,NCc1cccc(Nc2ncnc3[nH]cc(C(=O)c4ccccc4)c23)c1
4,> 300,COC(=O)c1cc(NC(=O)CNC(C)=O)cc(Nc2ncnc3[nH]cc(C(=O)c4ccccc4)c23)c1
5,> 300,CC(=O)NCC(=O)Nc1cc(Cl)cc(Nc2ncnc3[nH]cc(C(=O)c4ccccc4)c23)c1
6,140 to 142,CC(=O)Nc1cccc(Nc2ncnc3c2c(C(=O)c2ccccc2)cn3C)c1
7,> 300,O=C(c1ccccc1)c1c[nH]c2ncnc(Nc3cccc(CCO)c3)c12
8,> 300,CC(=O)Nc1cccc(Nc2ncnc3[nH]cc(C(=O)c4cccc(F)c4)c23)c1
9,> 300,CC(=O)Nc1cccc(Nc2ncnc3[nH]cc(C(=O)c4ccccc4C)c23)c1
10,> 300,Nc1cc(Cl)cc(Nc2ncnc3[nH]cc(C(=O)c4ccccc4)c23)c1
11,> 300,CNC(=O)c1cccc(Nc2ncnc3[nH]cc(C(=O)c4cccc(F)c4)c23)c1
12,> 300,O=C(NCCCN1CCCCC1)c1cccc(Nc2ncnc3[nH]cc(C(=O)c4ccccc4)c23)c1
